Experiments:
smooth bromegrass = conditions: GA3 applications; cited from earlier work
alfalfa = conditions: GA3 applications; cited from earlier work
corn [1] = experiment: Example 1 field trial: corn silage quality after foliar RyzUp Smartgrass at V4; format: in vivo, Zea mays (corn); conditions: vs untreated Control; 3.2 g GA3/acre (8 g/ha) at V4
Method: (§1) Field trials were conducted at various locations. Portions of the field were treated with RyzUp® Smartgrass (40% (w/v) GA3 (available from Valent BioSciences Corporation), while other parts of the field were not treated. RyzUp® Smartgrass applications were limited to applications between V3 and V6, with spray volumes for foliar applications ranging from 10-25 gallons/acre.
(§2) Trials were harvested using commercial equipment at standard timings for corn silage. Both RyzUp® Smartgrass and untreated areas of the field were harvested separately in order to obtain biomass yield (ton/acre). Subsequently, the harvested plant material was used for producing silage.
(§3) Representative samples were taken for subsequent analysis. Forage was analyzed by standard methods to determine quality parameters including dry matter, crude protein, Acid Detergent Fiber (ADF), Neutral Detergent Fiber (NDF), and starch data. Calculations were included for moisture, adjusted crude protein, Total Digestible Nutrients (TDN), Net Energy for Lactation (NEL), Net Energy for Gain (NEG) and protein solubility. This information was then entered into the MILK 2006 University of Wisconsin Corn Silage evaluation system. Calculations of the milk production, energy content and digestibility per ton of corn biomass were carried out using a calculation method described in the following references: Schwab, E. C., and R. D. Shaver. (2001); b) Schwab, E C et al. (2003); and c) Undersander, D J et al., (1993)
Modern corn hybrid varieties were grown in a field trial. RyzUp® Smartgrass (40% GA3) was applied at V4 growth stage at a rate of 3.2 g GA^3/acre (8 g/ha). In this trial, silage quality data were analyzed for each variety and the means were used to calculate milk production (Table 1). Percent moisture, crude protein, ADF and NDF were decreased while TDN, starch, and milk production were increased.

corn [2] = experiment: Example 2 field trial: corn silage quality after RyzUp Smartgrass at V5 under drought stress; format: in vivo, Zea mays (corn); conditions: vs untreated Control, 6.4 g GA3/acre (16 g/ha) at V5
Method: as §1, §2, §3
Corn grown in a field trial was treated at the V5 stage with RyzUp® Smartgrass (GA3 (w/v) 40%) at a rate of 6.4 g GA^3/acre (16 g/ha). Treatments were made in a spray volume of 15 gallons of water per acre with added surfactant. The overall conditions of this trial were drought stress both before and following application.

## C=C1C[C@]23C[C@@]1(O)CC[C@H]2[C@@]12C=C[C@H](O)[C@@](C)(C(=O)O1)[C@H]2[C@@H]3C(=O)O [GA3, gibberellin 3]
Smooth bromegrass
  dry weight: dose-dependent increase
  growth: dose-dependent increase
  in vitro digestible dry matter (IVDDM): decreased
alfalfa
  dry weight: dose-dependent increase
  growth: dose-dependent increase
  in vitro digestible dry matter (IVDDM): decreased
Corn [1]
  % NDF, Percent Difference: −2.7%
  % Starch, Percent Difference: +16.7%
  % TDN, Percent Difference: +1.2%
  Milk (lbs/t), Percent Difference: +2.6%
Corn [2]
  % NDF, Percent Difference: −17.8%
  % Starch, Percent Difference: +55.4%
  % TDN, Percent Difference: +8%
